From patent publication US8618138B2, “Indole amide derivatives and related compounds for use in the treatment of neurodegenerative diseases” (Katholieke Universiteit Leuven, K.U. Leuven R&D, priority 2009, dated 2013)

System: M17-TAU P301L cells
Experiment: TAU cytotoxicity assay: LDH leakage of retinoic acid incubated M17-TAU P301L cells
Type: cell-based, human
Settings: reduction of LDH activity of retinoic acid incubated M17-TAU P301L cells, 7 days
From the text: A TAU expression plasmid was constructed by sub-cloning the cDNA of human TAU-P301 L (encoding for TAU with proline 301 substituted by a leucine residue) into mammalian expression vector pcDNA3.1 resulting in plasmid pcDNA3.1-TAU P301L. Plasmids pcDNA3.1 and pcDNA3.1-TAU P301L were transfected to human neuroblastoma cells ([…]; ATCC No. CRL-2267) and independent clonal lines with the plasmids stably integrated into the genome were selected. […] Expression of the TAU P301L genes in the cell lines was confirmed by Western analysis.
In degenerated or dead cells lactate dehydrogenase (LDH) is leaked out of the cells into the extracellular environment due to a loss of plasma-membrane integrity. This principle was used to determine cytotoxicity by quantifying the level of leaked LDH into the growth medium.
The detailed method for determining TAU cytotoxicity was as follows: From appropriate precultures of M17-3.1 and M17-TAU(P301L) cells were seeded at 2500 cells/cm2 in Optimem Reduced Serum without phenol red (Gibco, Cat. 31985-047) supplemented with 1% fetal calf serum, 1 mM sodium pyruvate, 1× non-essential amino acids, 500 μg/ml G418 0.5× antibiotic/antimycotic. After 3 h of incubation at 37° C./5% CO2 1 volume of Optimem Reduced Serum (same as described above; except without fetal calf serum) supplemented with 2.5 μM retinoic acid (RA) was added. The cells were further incubated for 7 days. Subsequently, LDH activity was determined using Promega Cytotox 96 Non-Radioactive cytotoxicity assay, (Cat. G1780) according the supplier's instructions.
The M17-TAU P301L cell line made it possible to assess the ability of novel compounds to counteract TAU cytotoxicity. […] These measurements were used to calculate EC50 values of table 2.
Exemplary compounds of the present invention are shown in table 2, with their chemical name and their EC50 value (expressed in nM) as determined from example 196 in the Tau-induced toxicity experiment.

Row | Compound | EC50 (Homo sapiens, 168 h) [µM] | EC50 [µM]
1 | CC(c1ccccc1)N1CCC(C(=O)NCCc2c[nH]c3ccc(Cl)cc23)C1=O (single isomer, unassigned) [D156 Fraction A, N-(2-(5-chloro-1H-indol-3-yl)ethyl)-2-oxo-1-(1-phenylethyl)pyrrolidine-3-carboxamide] | 0.819 | –
2 | CC(c1ccccc1)N1CCC(C(=O)NCCc2c[nH]c3ccc(Cl)cc23)C1=O (single isomer, unassigned) [D156 Fraction B, N-(2-(5-chloro-1H-indol-3-yl)ethyl)-2-oxo-1-(1-phenylethyl)pyrrolidine-3-carboxamide] | – | 1.18
3 | COc1cccc(Cc2cc(C(=O)NCCc3c[nH]c4ccc(Cl)cc34)no2)c1 [Example D1, N-(2-(5-chloro-1H-indol-3-yl)ethyl)-5-(3-methoxybenzyl)isoxazole-3-carboxamide] | 0.002 | –
4 | O=C(NCCc1c[nH]c2ccc(Cl)cc12)c1cc(C2CCCC2)on1 [Example D2, N-(2-(5-chloro-1H-indol-3-yl)ethyl)-5-cyclopentylisoxazole-3-carboxamide] | 0.003 | –
5 | N#Cc1cccc(Cc2cc(C(=O)NCCc3c[nH]c4ccc(Cl)cc34)no2)c1 [Example D3, N-(2-(5-chloro-1H-indol-3-yl)ethyl)-5-(3-cyanobenzyl)isoxazole-3-carboxamide] | 0.006 | –
6 | N#Cc1ccc(Cc2cc(C(=O)NCCc3c[nH]c4ccc(Cl)cc34)no2)cc1 [Example D4, N-(2-(5-chloro-1H-indol-3-yl)ethyl)-5-(4-cyanobenzyl)isoxazole-3-carboxamide] | 0.009 | –
7 | O=C(NCCc1c[nH]c2ccc(Cl)cc12)c1cc(C2CC2)on1 [Example D6, N-(2-(5-chloro-1H-indol-3-yl)ethyl)-5-cyclopropylisoxazole-3-carboxamide] | 0.013 | –
8 | O=C(NCCc1c[nH]c2ccc(Cl)cc12)c1cc(Cc2ccccc2)on1 [Example D7, 5-benzyl-N-(2-(5-chloro-1H-indol-3-yl)ethyl)isoxazole-3-carboxamide] | 0.015 | –
9 | COc1ccccc1Cc1cc(C(=O)NCCc2c[nH]c3ccc(Cl)cc23)no1 [Example D8, N-(2-(5-chloro-1H-indol-3-yl)ethyl)-5-(2-methoxybenzyl)isoxazole-3-carboxamide] | 0.016 | –
10 | O=C(NCCc1c[nH]c2ccc(Cl)cc12)c1cc(Cc2ccc(C(F)(F)F)cc2)on1 [Example D9, N-(2-(5-chloro-1H-indol-3-yl)ethyl)-5-(4-(trifluoromethyl)benzyl)isoxazole-3-carboxamide] | 0.016 | –
11 | COc1ccc(Cc2cc(C(=O)NCCc3c[nH]c4ccc(Cl)cc34)no2)cc1 [Example D10, N-(2-(5-chloro-1H-indol-3-yl)ethyl)-5-(4-methoxybenzyl)isoxazole-3-carboxamide] | 0.017 | –
12 | O=C(NCCc1c[nH]c2ccc(Cl)cc12)c1cc(-c2ccco2)on1 [Example D11, N-(2-(5-chloro-1H-indol-3-yl)ethyl)-5-(furan-2-yl)isoxazole-3-carboxamide] | 0.017 | –
13 | Cc1ccc(Cc2cc(C(=O)NCCc3c[nH]c4ccc(Cl)cc34)no2)cc1 [Example D12, N-(2-(5-chloro-1H-indol-3-yl)ethyl)-5-(4-methylbenzyl)isoxazole-3-carboxamide] | 0.017 | –
14 | O=C(NCCc1c[nH]c2ccc(Cl)cc12)c1cc(C2CCCCC2)on1 [Example D13, N-(2-(5-chloro-1H-indol-3-yl)ethyl)-5-cyclohexylisoxazole-3-carboxamide] | 0.018 | –
15 | Cc1ccc2[nH]cc(CCNC(=O)c3cc(Cc4cccc(F)c4)on3)c2c1 [Example D14, 5-(3-fluorobenzyl)-N-(2-(5-methyl-1H-indol-3-yl)ethyl)isoxazole-3-carboxamide] | 0.019 | –
16 | Cn1nc(C(=O)NCCc2c[nH]c3ccc(Cl)cc23)cc1-c1cccs1 [Example D15, N-(2-(5-chloro-1H-indol-3-yl)ethyl)-1-methyl-5-(thiophen-2-yl)-1H-pyrazole-3-carboxamide] | 0.021 | –
17 | O=C(NCCc1c[nH]c2ccc(Cl)cc12)c1cc(-c2cccs2)on1 [Example D16, N-(2-(5-chloro-1H-indol-3-yl)ethyl)-5-(thiophen-2-yl)isoxazole-3-carboxamide] | 0.021 | –
18 | O=C(NCCc1c[nH]c2ccc(Cl)cc12)c1cc(Cc2ccco2)on1 [Example D17, N-(2-(5-chloro-1H-indol-3-yl)ethyl)-5-(furan-2-ylmethyl)isoxazole-3-carboxamide] | 0.022 | –
19 | Cn1nc(C(=O)NCCc2c[nH]c3ccc(Cl)cc23)cc1-c1ccco1 [Example D19, N-(2-(5-chloro-1H-indol-3-yl)ethyl)-5-(furan-2-yl)-1-methyl-1H-pyrazole-3-carboxamide] | 0.023 | –

Row | Compound | EC50 (Homo sapiens, 168 h) [µM] | EC50 [µM]
20 | Cc1cccc(Cc2cc(C(=O)NCCc3c[nH]c4ccc(Cl)cc34)no2)c1 [Example D20, N-(2-(5-chloro-1H-indol-3-yl)ethyl)-5-(3-methylbenzyl)isoxazole-3-carboxamide] | 0.023 | –
21 | COc1cccc(Cc2cc(C(=O)NCCc3c[nH]c4ccc(Cl)cc34)no2)c1F [Example D21, N-(2-(5-chloro-1H-indol-3-yl)ethyl)-5-(2-fluoro-3-methoxybenzyl)isoxazole-3-carboxamide] | 0.025 | –
22 | O=C(NCCc1c[nH]c2ccc(Cl)cc12)c1cc(Cc2ccoc2)on1 [Example D22, N-(2-(5-chloro-1H-indol-3-yl)ethyl)-5-(furan-3-ylmethyl)isoxazole-3-carboxamide] | 0.028 | –
23 | O=C(NCCc1c[nH]c2ccc(Cl)cc12)c1cc(Cc2cccc(F)c2)on1 [Example D23, N-(2-(5-chloro-1H-indol-3-yl)ethyl)-5-(3-fluorobenzyl)isoxazole-3-carboxamide] | 0.03 | –
24 | Cc1ccc(-c2nc(C)c(C(=O)NCCc3c[nH]c4ccccc34)s2)cc1 [Example D24, N-(2-(1H-indol-3-yl)ethyl)-4-methyl-2-p-tolylthiazole-5-carboxamide] | 0.034 | –
25 | O=C(NCCc1c[nH]c2ccc(Cl)cc12)c1cc(Cc2ccsc2)on1 [Example D25, N-(2-(5-chloro-1H-indol-3-yl)ethyl)-5-(thiophen-3-ylmethyl)isoxazole-3-carboxamide] | 0.035 | –
26 | Cn1nc(C(=O)NCCc2c[nH]c3ccc(Cl)cc23)cc1-c1ccccc1 [Example D26, N-(2-(5-chloro-1H-indol-3-yl)ethyl)-1-methyl-5-phenyl-1H-pyrazole-3-carboxamide] | 0.038 | –
27 | O=C(NCCc1c[nH]c2ccc(Cl)cc12)c1cc(Cc2cccs2)on1 [Example D27, N-(2-(5-chloro-1H-indol-3-yl)ethyl)-5-(thiophen-2-ylmethyl)isoxazole-3-carboxamide] | 0.038 | –
28 | O=C(NCCc1c[nH]c2ccc(F)cc12)c1cc(Cc2cccc(F)c2)on1 [Example D28, N-(2-(5-fluoro-1H-indol-3-yl)ethyl)-5-(3-fluorobenzyl)isoxazole-3-carboxamide] | 0.041 | –
29 | CC(C)(C)OC(=O)Nc1cc(C(=O)NCCc2c[nH]c3ccc(Cl)cc23)no1 [Example D29, tert-butyl 3-(2-(5-chloro-1H-indol-3-yl)ethylcarbamoyl)isoxazol-5-ylcarbamate] | 0.042 | –
30 | O=C(NCCc1c[nH]c2ccc(Cl)cc12)c1cc(Cc2cccc(C(F)(F)F)c2)on1 [Example D30, N-(2-(5-chloro-1H-indol-3-yl)ethyl)-5-(3-(trifluoromethyl)benzyl)isoxazole-3-carboxamide] | 0.042 | –
31 | O=C(NCCc1c[nH]c2ccccc12)c1cc(Cc2cccc(F)c2)on1 [Example D31, N-(2-(1H-indol-3-yl)ethyl)-5-(3-fluorobenzyl)isoxazole-3-carboxamide] | 0.044 | –
32 | COc1ccc2[nH]cc(CCNC(=O)c3sc(-c4ccc(C)cc4)nc3C)c2c1 [Example D32, N-(2-(5-methoxy-1H-indol-3-yl)ethyl)-4-methyl-2-p-tolylthiazole-5-carboxamide] | 0.05 | –
33 | CCCc1cc(-c2nc(C)c(C(=O)NCCc3c[nH]c4ccccc34)s2)ccn1 [Example D33, N-(2-(1H-indol-3-yl)ethyl)-4-methyl-2-(2-propylpyridin-4-yl)thiazole-5-carboxamide] | 0.056 | –
34 | O=C(NCc1c[nH]c2ccc(Cl)cc12)c1cc(Cc2cccc(F)c2)on1 [Example D34, N-((5-chloro-1H-indol-3-yl)methyl)-5-(3-fluorobenzyl)isoxazole-3-carboxamide] | 0.059 | –
35 | O=C(NCCCc1c[nH]c2ccc(Cl)cc12)c1cc(Cc2cccc(F)c2)on1 [Example D35, N-(3-(5-chloro-1H-indol-3-yl)propyl)-5-(3-fluorobenzyl)isoxazole-3-carboxamide] | 0.06 | –
36 | O=C(NCCc1c[nH]c2ccc(Cl)cc12)c1cc(-c2ccccc2)on1 [Example D36, N-(2-(5-chloro-1H-indol-3-yl)ethyl)-5-phenylisoxazole-3-carboxamide] | 0.061 | –
37 | Cc1ccc(-c2nc(C)c(C(=O)NCCc3c[nH]c4ccc(F)cc34)s2)cc1 [Example D37, N-(2-(5-fluoro-1H-indol-3-yl)ethyl)-4-methyl-2-p-tolylthiazole-5-carboxamide] | 0.061 | –
